# Assay results reported in paper PMC7914897, “Cytotoxic Potential of a-Azepano- and 3-Amino-3,4-SeCo-Triterpenoids” (International Journal of Molecular Sciences, 2021).
# Where two headings read alike, the source gives them in different places.
# Experiments:
# LOX IMVI (Melanoma) = assay: NCI-60 screen (SRB, 48 h); type: cell-based; settings: Homo sapiens
# MDA-MB-435 (Melanoma) = assay: NCI-60 screen (SRB, 48 h); type: cell-based; settings: Homo sapiens
# OVCAR-4 (Ovarian cancer) = assay: NCI-60 screen (SRB, 48 h); type: cell-based; settings: Homo sapiens
# Leukemia subpanel = assay: cells; settings: Homo sapiens
# CNS cancer subpanel = assay: NCI-60 screen, subpanel; settings: Homo sapiens
# K-562 (Leukemia) = assay: NCI-60 screen (SRB, 48 h); settings: Homo sapiens
# RPMI-8226 (Leukemia) = assay: NCI-60 screen (SRB, 48 h); settings: Homo sapiens
# HOP-92 (NSC lung cancer) = assay: NCI-60 screen (SRB, 48 h); settings: Homo sapiens
# [1] = test system: NCI-H226 (NSC lung cancer); assay: NCI-60 screen (SRB, 48 h); settings: Homo sapiens
# [2] = test system: NCI-H23 (NSC lung cancer); assay: NCI-60 screen (SRB, 48 h); settings: Homo sapiens
# HCC-2998 (Colon cancer) = assay: NCI-60 screen (SRB, 48 h); settings: Homo sapiens
# HCT-15 (Colon cancer) = assay: NCI-60 screen (SRB, 48 h); settings: Homo sapiens
# SF-539 (CNS cancer) = assay: NCI-60 screen (SRB, 48 h); settings: Homo sapiens
# U251 (CNS cancer) = assay: NCI-60 screen (SRB, 48 h); settings: Homo sapiens
# MALME-3M (Melanoma) = assay: NCI-60 screen (SRB, 48 h); settings: Homo sapiens
# M14 (Melanoma) = assay: NCI-60 screen (SRB, 48 h); settings: Homo sapiens
# SK-MEL-2 (Melanoma) = assay: NCI-60 screen (SRB, 48 h); settings: Homo sapiens
# SK-MEL-28 (Melanoma) = assay: NCI-60 screen (SRB, 48 h); settings: Homo sapiens
# UACC-257 (Melanoma) = assay: NCI-60 screen (SRB, 48 h); settings: Homo sapiens
# OVCAR-5 (Ovarian cancer) = assay: NCI-60 screen (SRB, 48 h); settings: Homo sapiens
# OVCAR-8 (Ovarian cancer) = assay: NCI-60 screen (SRB, 48 h); settings: Homo sapiens
# [3] = test system: NCI/ADR-RES (Ovarian cancer); assay: NCI-60 screen (SRB, 48 h); settings: Homo sapiens
# SK-OV-3 (Ovarian cancer) = assay: NCI-60 screen (SRB, 48 h); settings: Homo sapiens
# SN12C (Renal cancer) = assay: NCI-60 screen (SRB, 48 h); settings: Homo sapiens
# [4] = test system: MDA-MB-31/ATCC (Breast cancer); assay: NCI-60 screen (SRB, 48 h); settings: Homo sapiens
# HS 578T (Breast cancer) = assay: NCI-60 screen (SRB, 48 h); settings: Homo sapiens
# [5] = test system: panel of approximately 60 cancer cell lines; assay: NCI-60 screen (SRB, 48 h), full panel
compound,measurement,setting,value
"C=C(C)C1CCC2(CO)CCC3(C)C(CCC4C5(C)CCCNC(C)(C)C5CCC43C)C12 (stereo not drawn) [Compound 1, Azepanobetulin]",IC (TGI),LOX IMVI (Melanoma); 48 h,3.03 µM
same,GI50,LOX IMVI (Melanoma); read-out: GI50,1.51 µM
same,IC (TGI),"MDA-MB-435 (Melanoma); MDA-MB-435, 48 h, read-out: TGI",2.95 µM
same,GI50,"MDA-MB-435 (Melanoma); MDA-MB-435, read-out: GI50",1.56 µM
same,IC (TGI),"OVCAR-4 (Ovarian cancer); OVCAR-4, 48 h",2.81 µM
same,GI50,"OVCAR-4 (Ovarian cancer); OVCAR-4, read-out: GI50",1.45 µM
same,IC (TGI),"Leukemia subpanel; 48 h, read-out: TGI MG_MID",4.3 µM
same,GI50,Leukemia subpanel; read-out: GI50 MG_MID,1.69 µM
same,CC50,Leukemia subpanel; read-out: LC50 MG_MID,> 100 µM
same,IC (TGI),"CNS cancer subpanel; 48 h, read-out: TGI MG_MID",3.15 µM
same,GI50,CNS cancer subpanel; read-out: GI50 MG_MID,1.65 µM
same,CC50,CNS cancer subpanel; read-out: LC50 MG_MID,5.98 µM
same,GI50,K-562 (Leukemia); K562,1.08 µM
same,IC (TGI),"K-562 (Leukemia); K562, 48 h, read-out: TGI",3.79 µM
same,CC50,"K-562 (Leukemia); K562, read-out: LC50",> 100 µM
same,GI50,RPMI-8226 (Leukemia); RPMI-8226,1.94 µM
same,IC (TGI),"RPMI-8226 (Leukemia); RPMI-8226, 48 h, read-out: TGI",4.51 µM
same,CC50,"RPMI-8226 (Leukemia); RPMI-8226, read-out: LC50",> 100 µM
same,GI50,HOP-92 (NSC lung cancer); HOP-92,1.73 µM
same,IC (TGI),"HOP-92 (NSC lung cancer); HOP-92, 48 h, read-out: TGI",3.33 µM
same,CC50,"HOP-92 (NSC lung cancer); HOP-92, read-out: LC50",6.42 µM
same,GI50,[1]; NCI-H226,1.98 µM
same,IC (TGI),"[1]; NCI-H226, 48 h, read-out: TGI",4.09 µM
same,CC50,"[1]; NCI-H226, read-out: LC50",8.43 µM
same,GI50,[2]; NCI-H23,1.71 µM
same,IC (TGI),"[2]; NCI-H23, 48 h, read-out: TGI",3.39 µM
same,CC50,"[2]; NCI-H23, read-out: LC50",6.68 µM
same,GI50,HCC-2998 (Colon cancer); HCC 2998,1.51 µM
same,IC (TGI),"HCC-2998 (Colon cancer); HCC 2998, 48 h, read-out: TGI",2.93 µM
same,CC50,"HCC-2998 (Colon cancer); HCC 2998, read-out: LC50",5.68 µM
same,GI50,HCT-15 (Colon cancer); HCT-15,1.39 µM
same,IC (TGI),"HCT-15 (Colon cancer); HCT-15, 48 h, read-out: TGI",2.77 µM
same,CC50,"HCT-15 (Colon cancer); HCT-15, read-out: LC50",5.52 µM
same,GI50,SF-539 (CNS cancer); SF-539,1.58 µM
same,IC (TGI),"SF-539 (CNS cancer); SF-539, 48 h, read-out: TGI",3.01 µM
same,CC50,"SF-539 (CNS cancer); SF-539, read-out: LC50",5.72 µM
same,GI50,U251 (CNS cancer); U-251,1.65 µM
same,IC (TGI),"U251 (CNS cancer); U-251, 48 h, read-out: TGI",3.09 µM
same,CC50,"U251 (CNS cancer); U-251, read-out: LC50",5.76 µM
same,GI50,MALME-3M (Melanoma),1.5 µM
same,IC (TGI),"MALME-3M (Melanoma); 48 h, read-out: TGI",3.05 µM
same,CC50,MALME-3M (Melanoma); read-out: LC50,6.18 µM
same,GI50,M14 (Melanoma); M14,1.58 µM
same,IC (TGI),"M14 (Melanoma); M14, 48 h, read-out: TGI",3.13 µM
same,CC50,"M14 (Melanoma); M14, read-out: LC50",6.19 µM
same,GI50,SK-MEL-2 (Melanoma); SK-MEL-2,1.84 µM
same,IC (TGI),"SK-MEL-2 (Melanoma); SK-MEL-2, 48 h, read-out: TGI",3.75 µM
same,GI50,SK-MEL-28 (Melanoma); SK-MEL-28,1.62 µM
same,IC (TGI),"SK-MEL-28 (Melanoma); SK-MEL-28, 48 h, read-out: TGI",3.15 µM
same,CC50,"SK-MEL-28 (Melanoma); SK-MEL-28, read-out: LC50",6.13 µM
same,GI50,UACC-257 (Melanoma); UACC-257,1.95 µM
same,IC (TGI),"UACC-257 (Melanoma); UACC-257, 48 h, read-out: TGI",3.73 µM
same,CC50,"UACC-257 (Melanoma); UACC-257, read-out: LC50",7.14 µM
same,GI50,OVCAR-5 (Ovarian cancer); OVCAR-5,1.51 µM
same,IC (TGI),"OVCAR-5 (Ovarian cancer); OVCAR-5, 48 h, read-out: TGI",2.89 µM
same,CC50,"OVCAR-5 (Ovarian cancer); OVCAR-5, read-out: LC50",5.52 µM
same,GI50,OVCAR-8 (Ovarian cancer); OVCAR-8,1.83 µM
same,IC (TGI),"OVCAR-8 (Ovarian cancer); OVCAR-8, 48 h, read-out: TGI",3.51 µM
same,CC50,"OVCAR-8 (Ovarian cancer); OVCAR-8, read-out: LC50",6.73 µM
same,GI50,[3],1.63 µM
same,IC (TGI),"[3]; 48 h, read-out: TGI",3.18 µM
same,CC50,[3]; read-out: LC50,6.18 µM
same,GI50,SK-OV-3 (Ovarian cancer); SK-OV-3,1.83 µM
same,IC (TGI),"SK-OV-3 (Ovarian cancer); SK-OV-3, 48 h, read-out: TGI",3.49 µM
same,CC50,"SK-OV-3 (Ovarian cancer); SK-OV-3, read-out: LC50",6.64 µM
same,GI50,SN12C (Renal cancer),1.62 µM
same,IC (TGI),"SN12C (Renal cancer); 48 h, read-out: TGI",3.03 µM
same,CC50,SN12C (Renal cancer); read-out: LC50,5.69 µM
same,GI50,[4],1.77 µM
same,IC (TGI),"[4]; 48 h, read-out: TGI",3.21 µM
same,CC50,[4]; read-out: LC50,5.8 µM
same,GI50,HS 578T (Breast cancer),1.99 µM
same,IC (TGI),"HS 578T (Breast cancer); 48 h, read-out: TGI",4.79 µM
same,CC50,HS 578T (Breast cancer); read-out: LC50,31 µM
same,Positive Cytostatic Effect (cell lines with percent growth 0 to 50 / total),[5]; 1 dose 10 µM,27/59
same,number of cancer cell lines the compound was active against,[5]; 1 dose 10 µM,28 cell lines
same,activity at 10 µM,"[5]; Homo sapiens, 48 h, read-out: Mean Growth, %",20.8%
same,activity at 10 µM,"[5]; Homo sapiens, 48 h, read-out: Range of Growth, %",-82.5 to 84.4%
same,IC (TGI),"[5]; Homo sapiens, 48 h, read-out: TGI MG_MID60, average over all cell lines",3.34 µM
same,GI50,"[5]; Homo sapiens, read-out: GI50 MG_MID60",1.7 µM
same,GI50,"[5]; Homo sapiens, read-out: GI50 against all human tumor cell lines",< 3 µM
